Data reported in patent US8518989B2, “Prodrugs of short-chain fatty acids and treatment methods” (Georgia Health Sciences University Research Institute, Inc., priority 2005, dated 2013).
Like-named read-outs stand apart in the source and are kept apart here.

What was measured:
[1] = molecular target: T1, rat ATB^0,+ (Rattus norvegicus, UniProt Q334I2); test: Substrate-induced inward currents in Xenopus oocytes expressing rat ATB0,+ (voltage clamp); format: cell-based; details: for Inward currents induced in ATB0,+-expressing oocytes (in words): 5 mM; for Inward currents induced in ATB0,+-expressing oocytes (in words) / K0.5 (substrate concentration for half-maximal current): voltage clamp; for K0.5 (substrate concentration for half-maximal current): ATB0,+-expressing oocytes
T1 sequence (Q334I2 1-640): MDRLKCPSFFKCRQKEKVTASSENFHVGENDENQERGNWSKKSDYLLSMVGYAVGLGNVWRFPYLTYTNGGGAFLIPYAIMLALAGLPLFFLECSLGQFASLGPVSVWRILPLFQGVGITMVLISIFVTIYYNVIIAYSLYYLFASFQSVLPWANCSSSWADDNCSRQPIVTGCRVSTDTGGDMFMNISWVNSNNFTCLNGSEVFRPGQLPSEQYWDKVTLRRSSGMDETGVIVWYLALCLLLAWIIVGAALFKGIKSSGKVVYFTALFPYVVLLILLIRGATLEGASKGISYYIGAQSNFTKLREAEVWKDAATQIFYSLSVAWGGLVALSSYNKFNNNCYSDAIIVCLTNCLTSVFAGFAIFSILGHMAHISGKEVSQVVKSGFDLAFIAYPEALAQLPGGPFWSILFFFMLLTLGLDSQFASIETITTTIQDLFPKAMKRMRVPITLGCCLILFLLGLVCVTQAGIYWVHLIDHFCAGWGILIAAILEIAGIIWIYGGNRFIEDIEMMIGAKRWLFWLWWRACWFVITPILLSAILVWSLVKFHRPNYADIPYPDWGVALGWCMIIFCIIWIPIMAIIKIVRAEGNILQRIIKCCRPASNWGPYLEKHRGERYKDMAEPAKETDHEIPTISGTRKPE
Method: Experiments with HRPE cells were repeated at least three times with three independent transfections and transport measurements made in duplicate in each experiment. Electrophysiological measurements of substrate-induced currents were repeated at least three times with separate oocytes. The data are presented as means±S.E.M. of these replicates. The kinetic parameters, Michaelis constant (Kt) and maximal velocity (Vmax) were calculated by fitting the ATB^0,+-specific transport data to the Michaelis-Menten equation describing a single saturable transport system. Na^+ and Cl^−-activation kinetics were analyzed by fitting the ATB^0,+-specific transport data to the Hill equation for the determination of K0.5 values for Na^+ and Cl^− (concentration of Na^+ and Cl^− necessary for half-maximal activation) and the Hill coefficient (nH; the number of Na^+ or Cl^− ions involved in the activation process). The kinetics parameters were first determined by non-linear regression methods and subsequently confirmed by linear regression methods using the commercially-available computer program SigmaPlot, version 6.0 (SPSS Inc., Chicago, Ill., US).
Therefore, it was necessary to determine whether or not the α-carboxyl esters of neutral amino acids are transportable substrates for ATB^0,+. For this purpose, we used the X. laevis oocyte expression system. Cloned rat ATB^0,+ was functionally expressed in oocytes by injection of corresponding cRNA, and the transport of substrates via the transporter was monitored by inward currents when the oocytes were exposed to putative substrates under voltage-clamp conditions.

[2] = molecular target: T1, rat ATB^0,+; test: Inhibition of ATB0,+-mediated 3H-glycine uptake in HRPE cells expressing cloned rat ATB0,+; format: cell-based; details: for Inhibition of ATB0,+-mediated glycine transport (in words): 5 mM
[3] = system: MCF7 cells transfected with SMCT1 cDNA; test: Colony formation assay in MCF7 cells transfected with SMCT1 cDNA; format: cell-based, human; details: SMCT1-expressing MCF7 cells; for IC50: two weeks
[4] = system: SW480; details: SW480 cells; cited from earlier work
[5] = molecular target: T2, human SLC5A8 (Homo sapiens, UniProt Q8N695, F251V/V193I); test: Two-microelectrode voltage clamp of substrate-induced currents in SLC5A8-expressing oocytes; format: cell-based; details: for K0.5 for SLC5A8: Na+ 100 mM
T2 construct: We amplified the coding region of SLC5A8 mRNA by RT-PCR using human intestinal mRNA as the template; expressed in transfected cells; host or cells: Xenopus laevis oocytes, 50 ng capped cRNA from the pGH19 construct
T2 sequence (Q8N695 1-610 V193I/F251V): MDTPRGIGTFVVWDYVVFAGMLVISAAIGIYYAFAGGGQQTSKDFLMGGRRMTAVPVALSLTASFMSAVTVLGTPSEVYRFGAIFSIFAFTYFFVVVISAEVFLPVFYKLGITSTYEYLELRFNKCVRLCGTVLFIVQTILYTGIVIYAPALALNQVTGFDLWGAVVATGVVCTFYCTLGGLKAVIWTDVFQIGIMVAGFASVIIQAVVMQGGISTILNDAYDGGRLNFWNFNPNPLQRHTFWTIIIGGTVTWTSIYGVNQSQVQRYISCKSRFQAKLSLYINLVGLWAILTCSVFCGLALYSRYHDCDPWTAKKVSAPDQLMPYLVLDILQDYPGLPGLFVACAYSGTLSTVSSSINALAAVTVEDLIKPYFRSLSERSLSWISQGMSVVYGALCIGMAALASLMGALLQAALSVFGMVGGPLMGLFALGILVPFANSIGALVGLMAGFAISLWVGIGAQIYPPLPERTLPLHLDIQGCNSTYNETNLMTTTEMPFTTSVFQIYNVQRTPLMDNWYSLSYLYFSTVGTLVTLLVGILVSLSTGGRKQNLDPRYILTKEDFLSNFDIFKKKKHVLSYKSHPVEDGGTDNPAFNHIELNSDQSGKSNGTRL
Method: (§1) The amplified human SLC5A8 cDNA was expressed heterologously in Xenopus oocytes by cRNA injection. Capped cRNA from SLC5A8 cDNA was synthesized using the mMESSAGE mMACHINE kit (Ambion Inc., Austin, Tex.). Mature oocytes (stage 1V or V) from Xenopus laevis were injected with 50 ng cRNA. Uninjected oocytes served as controls. The oocytes were used for uptake and electrophysiological studies 3-6 days after cRNA injection. Uptake of radiolabeled substrates in uninjected and cRNA-injected oocytes was determined as described previously (Fei, Y. J., et al., (1995) Biochemistry 34, 8744-8751).
(§2) Eight oocytes were used for each uptake measurement. Electrophysiological studies were performed by the two-microelectrode voltage clamp method (11. Wang, H., Fei, et al., (2000) Am. J. Physiol. 278:C1019-C1030; Inoue, K, et al. (2004) Biochem. J. 378:949-957).
Oocytes were perfused with a NaCl-containing buffer (100 mM NaCl, 2 mM KCl, 1 mM MgCl2, 1 mM CaCl2, 3 mM Hepes, 3 mM Mes, and 3 mM Tris, pH 7.5), followed by the same buffer containing different fatty acids. The membrane potential was clamped at −50 mV. The differences between the steady-state currents measured in the presence and absence of substrates were considered as the substrate-induced currents. To investigate the current-membrane potential (I—V) relationship, step changes in membrane potential were applied, each for a duration of 100 ms in 20-mV increments. The kinetic parameter K0.5 (i.e. the substrate concentration necessary for the induction of half-maxima) current) was calculated by fitting the values of the substrate-induced currents to Michaelis-Menten equation. The Na^+-activation kinetics was analyzed by measuring the substrate-specific currents in the presence of increasing concentrations of Na^+. The data were analyzed by the Hill equation to determine the Hill coefficient (h; the number of Na^+ ions involved in the activation process). The kinetic parameters were determined using the computer program Sigma Plot, version 6.0 (SPSS, Inc., Chicago, Ill.). Electrophysiological measurements of substrate-induced currents were repeated at least four times with separate oocytes. The data are presented as means±S.E. of these replicates.
The charge-to substrate transfer ratio was determined for propionate in four different oocytes as described previously (Wang, H., et al. (2000) Am. J. Physiol. 278:C1019-C1030 12. Inoue, K., Fei, Y. J., Zhuang, L., Gopal, E., Miyauchi, S., and Ganapathy, V. (2004) Biochem. J. 378:949-957). The oocytes were perfused with 25 μM propionate (unlabeled plus radiolabeled propionate), and inward currents were monitored over a period of 8-10 min. At the end of the experiment, the amount of propionate transported into the oocytes was calculated by measuring the radioactivity associated with the oocytes. The area within the curve describing the relationship between the time and inward current was integrated to calculate the charge transferred into the oocyte during incubation with propionate. The values for substrate transfer and charge transfer were used to determine the charge to substrate transfer ratio.

[6] = molecular target: T2, human SLC5A8; test: Uptake of radiolabeled short-chain fatty acids in Xenopus oocytes injected with SLC5A8 cRNA; format: cell-based; set-up: Uptake, uninjected oocytes / Uptake, cRNA-injected oocytes: unit not given here; details: 1 h incubation; for Uptake, cRNA-injected oocytes: SLC5A8 cRNA-injected oocytes; for Uptake, uninjected oocytes: uninjected control oocytes
Method: as §1, §2
Uptake of short-chain fatty acids in uninjected oocytes and in oocytes injected with SLC5A8 cRNA was measured with 1 h incubation. Concentration of substrates (labeled plus unlabeled) varied in the range of 50-500 μM depending on the specific radioactivity of the substrates. Eight oocytes were used for each uptake measurement. Data represent means±SE.

N[C@@H](CO)C(=O)O [L-serine]
Inward currents induced in ATB0,+-expressing oocytes (in words) [1]: induced marked inward currents

CCCC(=O)OC[C@H](N)C(=O)O [O-butyryl-L-serine, O-Butyryl-L-serine]
Hill coefficient for Na+ ([1]; 2 mM substrate, Cl- 100 mM): 1.74±0.23
K0.5 for Na+ ([1]; 2 mM substrate, Cl- 100 mM): 5.02 ± 0.25 mM
Hill coefficient for Cl- ([1]; 2 mM substrate, Na+ 100 mM): 1.33±0.02
K0.5 for Cl- ([1]; 2 mM substrate, Na+ 100 mM): 6.28 ± 0.33 mM
Inward currents induced in ATB0,+-expressing oocytes (in words) [1]: induced marked inward currents
IC50 [2]: 118 ± 8 µM
Kt of ATB0,+-mediated glycine transport in the presence of inhibitor ([2]; 5 mM inhibitor, HRPE cells): 102 ± 17 µM
Vmax of ATB0,+-mediated glycine transport in the presence of inhibitor ([2]; 5 mM inhibitor, HRPE cells): 47 ± 5 nmol/10^6 cells/30 minutes
Inhibition of ATB0,+-mediated glycine transport (in words) ([2]; HRPE cells): inhibited glycine transport significantly

CCC(=O)OC[C@H](N)C(=O)O [O-propionyl-L-serine, O-Propionyl-L-Serine]
Inward currents induced in ATB0,+-expressing oocytes (in words) [1]: induced marked inward currents
K0.5 (substrate concentration for half-maximal current) [1]: 305 ± 31 µM
IC50 [2]: 332 ± 59 µM
Kt of ATB0,+-mediated glycine transport in the presence of inhibitor ([2]; 5 mM inhibitor, HRPE cells): 132 ± 37 µM
Vmax of ATB0,+-mediated glycine transport in the presence of inhibitor ([2]; 5 mM inhibitor, HRPE cells): 61 ± 13 nmol/10^6 cells/30 minutes
Inhibition of ATB0,+-mediated glycine transport (in words) ([2]; HRPE cells): inhibited glycine transport significantly

CCCC(=O)O [butyrate]
IC50 ([3]; Homo sapiens, 336 h): 37 ± 5 µM

TGF-α: growth factor used as mitogenic stimulus in SW480 cells
Cell proliferation [4]: 37%
Increase of Na+-dependent arginine transport [4]: 100%

CCCCC(=O)O [pentanoate]
Relative magnitude of substrate-induced currents ([5]; 5 mM, -50 mV): intermediate

C[C@H](O)C(=O)O [L-lactate]
Inward current induced ([5]; 5 mM, -50 mV, taken as 100%): 489±94 nA
K0.5 for SLC5A8 ([5]; four oocytes): 235 ± 24 µM
Fold increase of uptake (cRNA-injected over uninjected) [6]: 44.7 fold
Uptake, cRNA-injected oocytes [6]: 0.402 ± 0.026
Uptake, uninjected oocytes [6]: 0.009 ± 0.001

CC(=O)C(=O)O [pyruvate]
IC50 ([3]; Homo sapiens, 336 h): 72 ± 12 µM

CCCCCCCC(=O)O [octanoate]
Relative magnitude of substrate-induced currents ([5]; 5 mM, -50 mV): lowest

CC(=O)OC[C@H](N)C(=O)O [O-acetyl-L-serine]
Inward currents induced in ATB0,+-expressing oocytes (in words) [1]: induced marked inward currents
K0.5 (substrate concentration for half-maximal current) [1]: 369 ± 25 µM
Kt of ATB0,+-mediated glycine transport in the presence of inhibitor ([2]; 5 mM inhibitor, HRPE cells): 133 ± 36 µM
Vmax of ATB0,+-mediated glycine transport in the presence of inhibitor ([2]; 5 mM inhibitor, HRPE cells): 46 ± 9 nmol/10^6 cells/30 minutes
inhibition at 5000 µM ([2]; 5 mM inhibitor, HRPE cells, read-out: Inhibition of ATB0,+-mediated glycine transport): ~90%
IC50 ([2]; glycine 10 μM, HRPE cells, read-out: IC50 for inhibition of ATB0,+-mediated glycine transport): 423 ± 72 µM

[I-].[Na+] [NaI]
Current in SLC5A8 cRNA-injected oocytes (detectable or not) ([5]; 5 mM): did not induce any detectable current

C[C@@H](O)C(=O)O [D-lactate]
K0.5 for SLC5A8 ([5]; four oocytes): 742 ± 330 µM
Uptake, cRNA-injected oocytes [6]: 1.090 ± 0.041
Uptake, uninjected oocytes [6]: 0.028 ± 0.002

EGF: growth factor used as mitogenic stimulus in SW480 cells
Cell proliferation [4]: 27%
Increase of Na+-dependent arginine transport [4]: 66%

CCC(=O)O [propionate]
Effect on cell growth / apoptosis [3]: induce apoptosis
IC50 [3]: 205 ± 40 µM
Inward currents induced in ATB0,+-expressing oocytes (in words) [1]: did not induce detectable current
Inhibition of ATB0,+-mediated glycine transport (in words) ([2]; HRPE cells): did not inhibit glycine transport
Charge-to-substrate transfer ratio ([5]; 25 μM substrate, four oocytes): 3.1±0.1
Hill coefficient (h) for Na+ ([5]; 5 mM substrate): 2.0±0.1
Relative magnitude of substrate-induced currents ([5]; 5 mM, -50 mV): maximal
K0.5 for SLC5A8 ([5]; four oocytes): 127 ± 14 µM
Fold increase of uptake (cRNA-injected over uninjected) [6]: 15.9 fold
Uptake, cRNA-injected oocytes [6]: 0.255 ± 0.014
Uptake, uninjected oocytes [6]: 0.016 ± 0.001
